# Measured values as given in patent US10624887B2, “Compositions of (-)-17-(cyclobutylmethyl)morphinan-3,14,-diol” (priority 2010, dated 2020).
# “Also recorded” adds a separate entry of the source. Read-outs that look alike come from different tables or passages of the source.
# Legend:
# [1] = test system: paclitaxel induced painful neuropathy; experiment: Paclitaxel induced painful neuropathy, mechanical allodynia (von Frey filaments); assay type: in vivo, Wistar rats; conditions: paclitaxel neuropathic rats
# Text: (§1) The aim of this study was to evaluate the effect of oral administration of butorphanol in rats with paclitaxel induced painful neuropathy. The primary measurements were made mechanical and thermal allodynia designed to detect effects of the treatment(s) on neuropathic pain.
# (§2) Wistar rats weighing 250±20 g were maintained on standard laboratory diet and having free access to tap water ad lib were employed in the present study. They were housed in the animal house and were exposed to 12 hr cycle of light and dark. The experiments were conducted in a semi-sound proof laboratory. Care of the animals was in accordance with guidelines for experimentation on animals.
# Rats were injected on five alternate days (day 4, 6, 8, 10 & 12) with paclitaxel (2 mg/kg i.p.) using an injection volume of 2 ml/kg. Thus, the cumulative dose of paclitaxel was computed to be 10 mg/kg. […]
# Mechano-allodynia was assessed using von Frey filaments. […] Both hind paws were tested for allodynia and the average of the two was recorded as data. Results were expressed in grams and determined before and 30 and 60 min after the administration of the test drugs.
# (§3) The anti-nociceptive effect was plotted assessed having time (relative to dosing time point) on the x-axis and percent maximum possible effect (% MPE) on the y-axis. The results were expressed as mean±standard error of means (S.E.M.). […]
# [2] = intranasal, single dose, cited from earlier work
# [3] = cited from earlier work; for duration of analgesic effect (median time to requesting rescue analgesia): acute postsurgical pain
# [4] = test system: streptozotocin (STZ) induced diabetes neuropathy; experiment: Streptozotocin induced diabetic neuropathy, mechanical allodynia (von Frey filaments); assay type: in vivo, Wistar rats; conditions: STZ diabetic neuropathic rats
# Protocol: as §1, with “streptozotocin (STZ)” for “paclitaxel”, “diabetes” for “painful”, “neuropathy. A single injection of streptozotocin (STZ) (40-70 mg/kg, i.p.) was used to induce diabetes in rats.” for “neuropathy.”
# as §2
# The STZ-induced diabetes model was adapted from Arison et al (1967). […]
# Mechano-allodynia was assessed using von Frey filaments. […] Both hind paws were tested for allodynia and the average of the two was recorded. Results were expressed in grams and determined before and 30 and 60 min after the administration of the test drugs.
# as §3
# δ-opioid receptor = δ-opioid receptor (Homo sapiens, UniProt P41143); conditions: cited from earlier work
# Sequence of δ-opioid receptor (P41143 whole entry): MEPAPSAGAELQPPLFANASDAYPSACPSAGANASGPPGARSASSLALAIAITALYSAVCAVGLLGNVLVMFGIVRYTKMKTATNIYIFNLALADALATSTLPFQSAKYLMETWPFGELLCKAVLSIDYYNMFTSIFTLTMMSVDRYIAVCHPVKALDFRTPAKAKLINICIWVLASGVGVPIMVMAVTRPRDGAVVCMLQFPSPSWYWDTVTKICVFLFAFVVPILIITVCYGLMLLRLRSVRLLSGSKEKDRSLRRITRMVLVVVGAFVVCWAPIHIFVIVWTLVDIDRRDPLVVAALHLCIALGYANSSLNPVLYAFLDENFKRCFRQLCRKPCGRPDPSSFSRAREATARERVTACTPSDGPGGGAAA
# κ-opioid receptors = κ-opioid receptors (Homo sapiens, UniProt P41145); conditions: cited from earlier work
# Sequence of κ-opioid receptors (P41145 whole entry): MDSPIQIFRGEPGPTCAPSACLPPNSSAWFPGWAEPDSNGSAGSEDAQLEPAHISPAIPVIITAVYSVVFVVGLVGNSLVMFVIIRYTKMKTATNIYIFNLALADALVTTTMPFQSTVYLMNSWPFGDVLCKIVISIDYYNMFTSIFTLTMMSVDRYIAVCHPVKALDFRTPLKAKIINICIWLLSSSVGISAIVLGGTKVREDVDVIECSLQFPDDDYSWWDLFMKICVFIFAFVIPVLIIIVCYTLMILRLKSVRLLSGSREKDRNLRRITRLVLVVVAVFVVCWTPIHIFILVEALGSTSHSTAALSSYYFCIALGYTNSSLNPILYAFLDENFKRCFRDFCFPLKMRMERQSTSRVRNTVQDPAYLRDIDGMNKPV
structure (smiles),measurement,setting,value
"Oc1ccc2c(c1)[C@@]13CCCC[C@@]1(O)[C@@H](C2)N(CC1CCC1)CC3 [butorphanol, (−)17-(Cyclobutylmethyl)morphinan-3,14-diol]",time of peak effect post-administration (mechanical allodynia),[1]; oral,30 min
same,mechanical withdrawal threshold,"[1]; p.o. 0.01, 0.03, 0.1, 0.3 mg/kg, FIG. 17",dose dependent increase; also recorded: significant increase
same,dizziness,[2]; 1 mg,46%
same,headache,[2]; 1 mg,46%
same,nausea,[2]; 1 mg,38%
same,oxygen desaturation,[2]; 1 mg,3%
same,vomiting,[2]; 1 mg,17%
same,dizziness,[2]; 2 mg,58%
same,headache,[2]; 2 mg,29%
same,nausea,[2]; 2 mg,46%
same,oxygen desaturation,[2]; 2 mg,3%
same,vomiting,[2]; 2 mg,17%
same,duration of analgesic effect (median time to requesting rescue analgesia),[3]; 1 mg intranasal dose,less than 2 hours
same,subjects requiring rescue analgesia during the first 6 hours of observation,[3]; 1 mg intranasal dose,about 90%
same,duration of analgesic effect (median time to requesting rescue analgesia),[3]; 2 mg intranasal dose,less than 2 hours
same,subjects requiring rescue analgesia during the first 6 hours of observation,[3]; 2 mg intranasal dose,about 80%
same,mechanical withdrawal threshold,"[4]; oral 1, 3, 10, 30 mg/kg, FIG. 19",dose dependent increase; also recorded: significant increase
same,time of peak effect post-administration (mechanical allodynia),[4]; oral,30 min
same,activity at the δ-opioid receptor,δ-opioid receptor,preponderantly antagonist activity
same,activity at κ-opioid receptors,κ-opioid receptors,pure agonist
